The values that follow come from publication PMC6541917 (Journal of medicinal chemistry, 2018).

The IC50 is the concentration that inhibits the measured activity by half.

The test system of data set [1] is MT-4 cells. Conditions: ratio of CC50 to IC50.
Data set [2] in a line: in vitro. Conditions: human.
Data set [3] concerns HIV-1NL4–3. Kind of data set: antiviral p24 Gag assay in MT-4 cells, wild-type virus. The class given is cell-based. Conditions: Human immunodeficiency virus 1, MT4, read-out: mean IC50 ± SD.
Data set [4] deals with HIV-1NL4–3. Kind of data set: antiviral assay in MT-4 human T-lymphocytes exposed to HIV-1NL4–3. Format: cell-based. Conditions: Human immunodeficiency virus 1, MT4, in Homo sapiens, read-out: antiviral IC50.
Data set [5] has as its system HIV-1ATV^R5μM. Format: cell-based. Conditions: HIV-1ATV^R5μM compared to wild-type HIV-1NL4–3.
Data set [6] has as its system HIV-1APV^R5 μM. The class given is cell-based. Conditions: HIV-1APV^R5 μM compared to wild-type HIV-1NL4–3.
Data set [7] concerns HIV-1LPV^R5μM. The class given is cell-based. Conditions: HIV-1LPV^R5μM compared to wild-type HIV-1NL4–3.
The subject of data set [8] is multidrug-resistant HIV-1 variants. Put plainly: microbe, parasite or virus in culture. Format: cell-based. Conditions: Human immunodeficiency virus 1, read-out: antiviral IC50, range over variants.

A value given as a limit tells only on which side of the number the result lay.

As to `COc1ccc(S(=O)(=O)N(CC(C)C)C[C@@H](O)[C@H](Cc2ccccc2)NC(=O)O[C@H]2C[C@H]3OC(=O)N(C)[C@H]3C2)cc1` [Inhibitor 4c, (3aS,5R,6aR)-3-Methyl-2-oxohexahydro-2H-cyclopenta[d]-oxazol-5-yl ((2S,3R)-3-Hydroxy-4-((N-isobutyl-4-methoxyphenyl)sulfonamido)-1-phenylbutan-2-yl)carbamate], in data set [1], the selectivity index is on record as greater than 2778. The compound also returned a CC50 in data set [2] greater than 100 µM.
Regarding `CC(C)CN(C[C@@H](O)[C@H](Cc1ccccc1)NC(=O)O[C@H]1CO[C@H]2OCC[C@H]21)S(=O)(=O)c1ccc(N)cc1` [DRV, darunavir, reference compound], in data set [3], the IC50 is 0.0035 ± 9e-05 µM.
With `COc1ccc(S(=O)(=O)N(CC(C)C)C[C@@H](O)[C@H](Cc2ccccc2)NC(=O)O[C@@H]2C[C@@H]3NC(=O)O[C@@H]3C2)cc1` [Inhibitor 4a, (3aS,5R,6aR)-2-Oxohexahydro-2H-cyclopenta[d]oxazol-5-yl ((2S,3R)-3-Hydroxy-4-((N-isobutyl-4-methoxyphenyl)-sulfonamido)-1-phenylbutan-2-yl)carbamate], in data set [1], the selectivity index is given as greater than 2070.
The same measure, in the same setting: then `COc1ccc(S(=O)(=O)N(CC(C)C)C[C@@H](O)[C@H](Cc2ccccc2)NC(=O)O[C@@H]2C[C@@H]3OC(=O)N(C)[C@@H]3C2)cc1` [Inhibitor 4d, (3aR,5S,6aS)-3-Methyl-2-oxohexahydro-2H-cyclopenta[d]-oxazol-5-yl ((2S,3R)-3-Hydroxy-4-((N-isobutyl-4-methoxyphenyl)sulfonamido)-1-phenylbutan-2-yl)carbamate], with greater than 229.
Consider `C=C(C)CN1C(=O)O[C@@H]2C[C@H](OC(=O)N[C@@H](Cc3ccccc3)[C@H](O)CN(CC(C)C)S(=O)(=O)c3ccc(OC)cc3)C[C@@H]21` [Inhibitor 4k, (3aS,5R,6aR)-3-(2-Methylallyl)-2-oxohexahydro-2H-cyclopenta[d]oxazol-5-yl ((2S,3R)-3-Hydroxy-4-((N-isobutyl-4-methoxyphenyl)sulfonamido)-1-phenylbutan-2-yl)carbamate], for which the concentration for half-maximal inhibition (IC50) in data set [4] was determined as 0.031 µM; in data set [3], 0.023 ± 0.0001 µM. In addition, the “IC50 fold-change (in parentheses)” value in data set [5] turned out to be 1; in data set [6], 11. Moreover, the selectivity index in data set [1] is greater than 3226.
In the case of `COc1ccc(S(=O)(=O)N(CC(C)C)C[C@@H](O)[C@H](Cc2ccccc2)NC(=O)O[C@H]2C[C@H]3OC(=O)N(CC(C)C)[C@H]3C2)cc1` [Inhibitor 4l, (3aS,5R,6aR)-3-Isobutyl-2-oxohexahydro-2H-cyclopenta[d]-oxazol-5-yl ((2S,3R)-3-Hydroxy-4-((N-isobutyl-4-methoxyphenyl)sulfonamido)-1-phenylbutan-2-yl)carbamate], the results for the “IC50 fold-change (in parentheses)” value in data set [5], in data set [7] and in data set [6] were 1, 15 and 7, respectively. The IC50 in data set [8] was in the range of 0.033 to 0.615 µM. Moreover, the selectivity index in data set [1] is on record as greater than 2439.
